The values that follow come from patent US8895585B2, “Nicotinamide derivative or salt thereof” (FUJIFILM Corporation, priority 2010, dated 2014).

Bounds are passed on as bounds.

The target of experiment [1] is T1, glutathione S-transferase (GST)-fused full-length human Syk protein (Homo sapiens, UniProt P43405).
T1 construct: (GST)-fused full-length human Syk protein; GST (glutathione S-transferase); purchased Carna Biosciences
Briefly: Syk enzyme assay. Type of experiment: biochemical. The conditions noted are these: Syk enzyme assay, Test Example 1; read-out: IC50 of Syk-inhibitory activity. Summed up: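 Baculovirus-expressed enzyme (1.2 ng) was preincubated with compound in HEPES pH 7.0/MgCl2/DTT buffer, 2 min shaking then 13 min at room temperature. Biotin-EDPDYEWPSA-NH2 (0.4 μM final) and ATP (27 μM final) were added for 40 min at room temperature. EDTA stop, streptavidin-XL/PT66-K TR-FRET at 615/665 nm gave IC50.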

For a further experiment, the system named is THP-1 cells. The experiment can be described thus: TNFα generation assay. Type of experiment: cell-based, human. The conditions noted are these: Homo sapiens, THP-1, THP-1 cells; Table 22; read-out: IC50 in TNFα generation assay. Summed up: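 Secreted TNFα in supernatant quantified by ELISA or AlphaLISA after 7 h culture on human IgG-coated wells (10 μg/ml coating). Cells were IFN-γ-differentiated THP-1 (10 ng/ml, 2 days), exposed to compound for 30 min at room temperature before plating.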

Turning to `CCOc1cc(Nc2nc(N[C@H](C)[C@H](C)N)c(F)cc2C(N)=O)ccn1` (racemic) [Example 006-213, 6-(((2R,3S)-3-aminobutan-2-yl)amino)-2-((2-ethoxypyridin-4-yl)amino)-5-fluoronicotinamide 6-(((2S,3R)-3-aminobutan-2-yl)amino)-2-((2-ethoxypyridin-4-yl)amino)-5-fluoronicotinamide], the IC50 in experiment [1] is less than 10 nM; in the experiment on THP-1 cells it was 130 to 200 nM.
For `C[C@H](N)[C@@H](C)Nc1nc(Nc2ccc3ncccc3c2)c(C(N)=O)cc1F` (racemic) [Example 39-1, 6-(((2R,3S)-3-aminobutan-2-yl)amino)-5-fluoro-2-((quinolin-6-yl)amino)nicotinamide 6-(((2S,3R)-3-aminobutan-2-yl)amino)-5-fluoro-2-((quinolin-6-yl)amino)nicotinamide] the same measures were less than 10 nM and less than 65 nM.
For `NC(=O)c1cc(F)c(N[C@@H]2CCCC[C@@H]2N)nc1Nc1cncc(N2CCCC2)c1` (relative stereo) [Example 004-049] the same measures were less than 10 nM and 130 to 200 nM.
The matching figures for `NC(=O)c1cc(F)c(N[C@@H]2CCCC[C@@H]2N)nc1Nc1cncc(N2CCCCC2)c1` (relative stereo) [Example 004-050]: 10 to 50 nM and 130 to 200 nM.
As for `NC(=O)c1cc(F)c(N[C@@H]2CCCC[C@@H]2N)nc1Nc1cncc(N2CCOCC2)c1` (relative stereo) [Example 004-051], the IC50 in experiment [1] was less than 10 nM; in the experiment on THP-1 cells, 130 to 200 nM.
For `NC(=O)c1cc(F)c(N[C@@H]2CCCC[C@@H]2N)nc1Nc1cncc(-c2ccc[nH]2)c1` (relative stereo) [Example 004-053] the same measures were less than 10 nM and 65 to 130 nM.
Turning to `NC(=O)c1cc(F)c(N[C@@H]2CCCC[C@@H]2N)nc1Nc1cncc(-c2cccs2)c1` (relative stereo) [Example 004-054], the values for the IC50 (in experiment [1]; in the experiment on THP-1 cells) were less than 10 nM and 65 to 130 nM, respectively.
Take `NC(=O)c1cc(F)c(N[C@@H]2CCCC[C@@H]2N)nc1Nc1cncc(C2CC2)c1` (relative stereo) [Example 004-055]: the IC50 in experiment [1] was less than 10 nM; in the experiment with THP-1 cells it was 65 to 130 nM.
Turning to `NC(=O)c1cc(F)c(N[C@@H]2CCCC[C@@H]2N)nc1Nc1cncc(-c2ccc3c(c2)OCCO3)c1` (relative stereo) [Example 004-056], the IC50 in experiment [1] is less than 10 nM; in the experiment on THP-1 cells it was 130 to 200 nM.
On to `NC(=O)c1cc(F)c(N[C@@H]2CCCC[C@@H]2N)nc1Nc1cncc(-c2ccco2)c1` (relative stereo) [Example 004-058], for which the IC50 was less than 10 nM in experiment [1] and 65 to 130 nM in the experiment on THP-1 cells.
The matching figures for `NC(=O)c1cc(F)c(N[C@@H]2CCCC[C@@H]2N)nc1Nc1cnc2c(N)cccc2c1` (relative stereo) [Example 004-059]: less than 10 nM and less than 65 nM.
As to `NC(=O)c1cc(F)c(N[C@@H]2CCCC[C@@H]2N)nc1Nc1cnc2[nH]ccc2c1` (relative stereo) [Example 004-061], the IC50 in experiment [1] was less than 10 nM; in the experiment with THP-1 cells, less than 65 nM.
For the molecule `NC(=O)c1cc(F)c(N[C@@H]2CCCC[C@@H]2N)nc1Nc1cncc2[nH]ccc12` (relative stereo) [Example 004-062], the values for the IC50 (in experiment [1]; with THP-1 cells) were less than 10 nM and less than 65 nM, respectively.
The matching figures for `NC(=O)Nc1cccc2cc(Nc3nc(N[C@@H]4CCCC[C@@H]4N)c(F)cc3C(N)=O)cnc12` (relative stereo) [Example 004-064]: 100 to 1000 nM and less than 65 nM.
For `COc1cc(Nc2nc(N[C@@H]3CCCC[C@@H]3N)c(F)cc2C(N)=O)c2cc[nH]c2n1` (relative stereo) [Example 004-065, 6-(cis-2-aminocyclohexylamino)-5-fluoro-2-((6-methoxy-1H-pyrrolo[2,3-b]pyridin-4-yl)-amino)nicotinamide] the same measures were less than 10 nM and 65 to 130 nM.
For `NC(=O)c1cc(F)c(N[C@@H]2CCCC[C@@H]2N)nc1Nc1cc(-n2ccnn2)nc2[nH]ccc12` (relative stereo) [Example 004-068, 2-((6-(1H-1,2,3-triazol-1-yl)-1H-pyrrolo[2,3-b]pyridin-4-yl)amino)-6-(cis-2-aminocyclohexylamino)-5-fluoronicotinamide], the IC50 in experiment [1] was less than 10 nM; in the experiment on THP-1 cells it was 65 to 130 nM.
For `NC(=O)c1cc(F)c(N[C@@H]2CCCC[C@@H]2N)nc1Nc1cc(-n2cncn2)nc2[nH]ccc12` (relative stereo) [Example 004-069, 2-((6-(1H-1,2,4-triazol-1-yl)-1H-pyrrolo[2,3-b]pyridin-4-yl)amino)-6-(cis-2-aminocyclohexylamino)-5-fluoronicotinamide] the same measures were less than 10 nM and 65 to 130 nM.
For the molecule `Cc1cc2cc(Nc3nc(N[C@@H]4CCCC[C@@H]4N)c(F)cc3C(N)=O)ccc2[nH]1` (relative stereo) [Example 004-071, 6-(cis-2-aminocyclohexylamino)-5-fluoro-2-((2-methyl-1H-indol-5-yl)amino)nicotinamide], the IC50 is less than 10 nM in experiment [1] and 130 to 200 nM in the experiment on THP-1 cells.
Regarding `Cn1cc(-c2cncc(Nc3nc(N[C@@H]4CCCC[C@@H]4N)c(F)cc3C(N)=O)c2)cn1` (relative stereo) [Example 004-072, 6-(cis-2-aminocyclohexylamino)-5-fluoro-2-((5-(1-methyl-1H-pyrazol-4-yl)pyridin-3-yl)-amino)nicotinamide], the IC50 in experiment [1] was less than 10 nM; in the experiment on THP-1 cells it was 130 to 200 nM.
As for `NC(=O)c1cc(F)c(N[C@@H]2CCCC[C@@H]2N)nc1Nc1cncc(-c2cncs2)c1` (relative stereo) [Example 004-074, 6-(cis-2-aminocyclohexylamino)-5-fluoro-2-((5-(thiazol-5-yl)pyridin-3-yl)amino)-nicotinamide], the IC50 in experiment [1] was less than 10 nM; in the experiment with THP-1 cells, 65 to 130 nM.
Take `NC(=O)c1cc(F)c(N[C@@H]2CCCC[C@@H]2N)nc1Nc1cncc(-c2cnn(Cc3ccccc3)c2)c1` (relative stereo) [Example 004-075, 6-(cis-2-aminocyclohexylamino)-2-((5-(1-benzyl-1H-pyrazol-4-yl)pyridin-3-yl)amino)-5-fluoronicotinamide]: the IC50 in experiment [1] was less than 10 nM; in the experiment with THP-1 cells it was 130 to 200 nM.
The matching figures for `NC(=O)c1cc(F)c(N[C@@H]2CCCC[C@@H]2N)nc1Nc1cncc(-c2ccc3[nH]ccc3c2)c1` (relative stereo) [Example 004-076, 2-((5-(1H-indol-5-yl)pyridin-3-yl)amino)-6-(cis-2-aminocyclohexylamino)-5-fluoronicotinamide]: less than 10 nM and 130 to 200 nM.
For the molecule `NC(=O)c1cc(F)c(N[C@@H]2CCCC[C@@H]2N)nc1Nc1cncc(-c2ccsc2)c1` (relative stereo) [Example 004-077, 6-(cis-2-aminocyclohexylamino)-5-fluoro-2-((5-(thiophene-3-yl)pyridin-3-yl)amino)-nicotinamide], the values for the IC50 (in experiment [1]; with THP-1 cells) were less than 10 nM and 65 to 130 nM, respectively.
The matching figures for `NC(=O)c1cc(F)c(N[C@@H]2CCCC[C@@H]2N)nc1Nc1cncc(-c2ccoc2)c1` (relative stereo) [Example 004-078, 6-(cis-2-aminocyclohexylamino)-5-fluoro-2-((5-(furan-3-yl)pyridin-3-yl)amino)-nicotinamide]: less than 10 nM and 65 to 130 nM.
On to `NC(=O)c1cc(F)c(N[C@@H]2CCCC[C@@H]2N)nc1Nc1cc(F)cc2[nH]ccc12` (relative stereo) [Example 004-082, 6-(cis-2-aminocyclohexylamino)-5-fluoro-2-((6-fluoro-1H-indol-4-yl)amino)nicotinamide], for which the IC50 in experiment [1] was less than 10 nM; in the experiment on THP-1 cells it was 130 to 200 nM.
As to `NC(=O)c1cc(F)c(N[C@@H]2CCCC[C@@H]2N)nc1Nc1cc([N+](=O)[O-])c2[nH]ccc2c1` (relative stereo) [Example 004-089, 6-(cis-2-aminocyclohexylamino)-5-fluoro-2-((7-nitro-1H-indol-5-yl)amino)nicotinamide], the IC50 in experiment [1] is less than 10 nM; in the experiment with THP-1 cells it was 65 to 130 nM.
Turning to `COCCn1ncc2cc(Nc3nc(N[C@@H]4CCCC[C@@H]4N)c(F)cc3C(N)=O)ccc21` (relative stereo) [Example 004-091, 6-(cis-2-aminocyclohexylamino)-5-fluoro-2-((1-(2-methoxyethyl)-1H-indazol-5-yl)amino)-nicotinamide], the IC50 in experiment [1] is less than 10 nM; in the experiment on THP-1 cells, 65 to 130 nM.
Regarding `CCOCCOCCn1ncc2cc(Nc3nc(N[C@@H]4CCCC[C@@H]4N)c(F)cc3C(N)=O)ccc21` (relative stereo) [Example 004-092, 6-(cis-2-aminocyclohexylamino)-2-((1-(2-(2-ethoxyethoxy)ethyl)-1H-indazol-5-yl)amino)-5-fluoronicotinamide], the IC50 is less than 10 nM in experiment [1] and 65 to 130 nM in the experiment on THP-1 cells.
On to `NC(=O)c1cc(F)c(N[C@@H]2CCCC[C@@H]2N)nc1Nc1ccc2nn(CC3CC3)cc2c1` (relative stereo) [Example 004-093, 6-(cis-2-aminocyclohexylamino)-2-((2-(cyclopropylmethyl)-2H-indazol-5-yl)amino)-5-fluoronicotinamide], for which the IC50 was less than 10 nM in experiment [1] and 130 to 200 nM in the experiment with THP-1 cells.
The matching figures for `COCCn1cc2cc(Nc3nc(N[C@@H]4CCCC[C@@H]4N)c(F)cc3C(N)=O)ccc2n1` (relative stereo) [Example 004-094, 6-(cis-2-aminocyclohexylamino)-5-fluoro-2-((2-(2-methoxyethyl)-2H-indazol-5-yl)amino)-nicotinamide]: less than 10 nM and 130 to 200 nM.
